Assay results taken from ChEMBL document CHEMBL5512688 (J Med Chem, 2024).

Tests used:
[1] = AUC (0 to 24 hrs) in ICR mouse at 60 mg/kg, IG measured upto 24 hrs by LC-MS/MS analysis; type: ADME, organism-based; conditions: in vivo, po
[2] = target: T1, Mitogen-activated protein kinase kinase kinase 19 (Homo sapiens) (UniProt Q56UN5); test: Inhibition of MAP3K19 (unknown origin) at 1 uM relative to control
T1 sequence (whole entry): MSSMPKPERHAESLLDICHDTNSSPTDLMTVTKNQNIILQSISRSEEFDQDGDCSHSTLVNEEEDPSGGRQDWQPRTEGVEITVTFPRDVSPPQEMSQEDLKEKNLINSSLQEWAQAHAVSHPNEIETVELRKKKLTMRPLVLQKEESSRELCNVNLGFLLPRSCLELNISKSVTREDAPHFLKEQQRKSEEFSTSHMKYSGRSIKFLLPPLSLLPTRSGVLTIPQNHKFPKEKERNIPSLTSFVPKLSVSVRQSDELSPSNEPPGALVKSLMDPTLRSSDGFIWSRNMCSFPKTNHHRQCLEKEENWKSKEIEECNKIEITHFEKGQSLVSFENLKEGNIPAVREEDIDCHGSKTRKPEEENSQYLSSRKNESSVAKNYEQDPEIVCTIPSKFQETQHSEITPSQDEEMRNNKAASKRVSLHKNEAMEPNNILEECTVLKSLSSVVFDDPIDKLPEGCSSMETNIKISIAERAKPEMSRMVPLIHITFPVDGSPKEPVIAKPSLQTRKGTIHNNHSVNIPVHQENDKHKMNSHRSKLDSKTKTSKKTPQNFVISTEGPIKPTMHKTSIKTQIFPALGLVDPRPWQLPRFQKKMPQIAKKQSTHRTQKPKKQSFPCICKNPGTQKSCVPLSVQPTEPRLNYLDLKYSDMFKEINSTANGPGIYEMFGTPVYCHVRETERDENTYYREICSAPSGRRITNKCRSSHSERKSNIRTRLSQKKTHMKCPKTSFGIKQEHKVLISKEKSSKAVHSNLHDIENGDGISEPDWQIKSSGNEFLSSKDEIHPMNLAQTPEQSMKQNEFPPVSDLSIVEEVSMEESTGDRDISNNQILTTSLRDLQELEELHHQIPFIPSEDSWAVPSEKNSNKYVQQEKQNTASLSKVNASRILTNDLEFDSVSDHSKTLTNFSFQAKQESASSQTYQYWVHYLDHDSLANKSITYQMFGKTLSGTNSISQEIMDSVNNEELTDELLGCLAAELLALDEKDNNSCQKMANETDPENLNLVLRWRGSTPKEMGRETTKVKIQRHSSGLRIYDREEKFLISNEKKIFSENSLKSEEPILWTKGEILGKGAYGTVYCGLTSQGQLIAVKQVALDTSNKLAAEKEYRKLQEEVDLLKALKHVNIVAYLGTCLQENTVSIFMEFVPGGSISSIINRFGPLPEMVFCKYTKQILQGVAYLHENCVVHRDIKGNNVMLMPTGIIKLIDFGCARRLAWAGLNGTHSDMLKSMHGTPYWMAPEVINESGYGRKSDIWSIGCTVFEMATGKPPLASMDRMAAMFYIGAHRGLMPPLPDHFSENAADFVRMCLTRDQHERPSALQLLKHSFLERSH

A-427 [3] = test: Induction of apoptosis in human A-427 cells assessed as necrotic cells at 400 nM measured for 48 hrs by Annexin V/PI double staining based flow cytometry analysis (reference value: 0.098%); type: functional
A-427 [4] = test: Induction of apoptosis in human A-427 cells assessed as viable cells at 400 nM measured for 48 hrs by Annexin V/PI double staining based flow cytometry analysis (reference value: 97.7%); type: functional; conditions: read-out: Activity
A-427 [5] = test: Induction of apoptosis in human A-427 cells assessed as late apoptotic cells at 800 nM measured for 48 hrs by Annexin V/PI double staining based flow cytometry analysis (reference value: 0.21%); type: functional
LoVo [6] = test: Antitumor activity against human LoVo cells xenografted in female BALB/c nude mouse assessed as tumor growth inhibition at 60 mg/kg, IG administered once daily for 27 days; type: functional; conditions: po, 648 h, time 27 day, read-out: TGI
A-427 [7] = test: Induction of cell cycle arrest in human A-427 cells assessed as accumulation of cells at G0/G1 phase at 50 nM measured for 48 hrs by flow cytometry analysis (reference value: 49.5%); type: functional
Wee1-like protein kinase = Wee1-like protein kinase (Homo sapiens, UniProt P30291); test: Inhibition of human Wee1 (215 to 647 residues) using polyornithine/tyrosine (4:1) as substrate incubated for 5 mins in presence of ATP by micro beta plate reader analysis
Wee1-like protein kinase, sequence (P30291 whole entry, the tested form may be a part): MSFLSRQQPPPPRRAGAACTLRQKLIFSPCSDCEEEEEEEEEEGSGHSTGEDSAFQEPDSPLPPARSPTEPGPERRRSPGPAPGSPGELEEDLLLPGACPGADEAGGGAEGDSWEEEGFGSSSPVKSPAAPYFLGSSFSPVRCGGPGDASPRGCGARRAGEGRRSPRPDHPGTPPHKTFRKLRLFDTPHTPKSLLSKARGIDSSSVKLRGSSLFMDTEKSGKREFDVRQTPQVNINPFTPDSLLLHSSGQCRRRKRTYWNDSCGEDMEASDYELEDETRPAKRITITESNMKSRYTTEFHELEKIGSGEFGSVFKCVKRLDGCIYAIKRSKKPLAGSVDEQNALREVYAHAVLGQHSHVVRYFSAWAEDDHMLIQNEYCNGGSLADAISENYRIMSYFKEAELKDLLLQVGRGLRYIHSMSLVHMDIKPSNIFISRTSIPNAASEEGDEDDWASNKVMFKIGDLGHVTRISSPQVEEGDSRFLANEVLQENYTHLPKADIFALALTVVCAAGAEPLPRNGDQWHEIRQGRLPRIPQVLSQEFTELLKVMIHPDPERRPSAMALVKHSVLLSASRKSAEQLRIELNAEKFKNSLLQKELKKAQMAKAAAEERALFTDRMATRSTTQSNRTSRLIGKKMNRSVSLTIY

A-427 [8] = test: Induction of cell cycle arrest in human A-427 cells assessed as accumulation of cells at S phase at 400 nM measured for 48 hrs by flow cytometry analysis (reference value: 4 %); type: functional
[9] = Half life in ICR mouse at 1 mg/kg, iv measured upto 24 hrs by LC-MS/MS analysis; type: ADME, organism-based; conditions: in vivo
LoVo [10] = test: Antiproliferative activity against human LoVo cells assessed as inhibition of cell growth incubated for 72 hrs by CCK-8 method; type: functional, cell-based
A-427 [11] = test: Induction of cell cycle arrest in human A-427 cells assessed as accumulation of cells at G2/M phase at 100 nM measured for 48 hrs by flow cytometry analysis (reference value: 10.9 %); type: functional
A-427 [12] = test: Induction of cell cycle arrest in human A-427 cells assessed as accumulation of cells at G0/G1 phase at 400 nM measured for 48 hrs by flow cytometry analysis (reference value: 49.5%); type: functional
A-427 [13] = test: Induction of apoptosis in human A-427 cells assessed as late apoptotic cells at 200 nM measured for 48 hrs by Annexin V/PI double staining based flow cytometry analysis (reference value: 0.21%); type: functional

Structure (SMILES): C=CCn1c(=O)c2cnc(Nc3ccc(N4CCN(C)CC4)cc3)nc2n1-c1cccc(-c2cnccn2)n1
- AUC(0-t) at 24 h [1]: 4340 ng·h/mL
- inhibition [2]: > 90%
- Activity (A-427 [3]): 2.33%
- viability at 0.4 µM (A-427 [4]): 58.3%
- Activity (A-427 [5]): 35.4%
- inhibition in vivo at 60 mg/kg (LoVo [6]): 88%
- Activity (A-427 [7]): 40.9%
- IC50 (Wee1-like protein kinase): 2.1 nM
- Activity (A-427 [8]): 59.1%
- half-life [9]: 1.06 h
- IC50 (LoVo [10]): 82 nM
- Activity (A-427 [11]): 7.09%
- Activity (A-427 [12]): 31.3%
- Activity (A-427 [13]): 25.6%
